Experimental data reported in patent US20240148002A1, “BIOCIDAL COMPOSITIONS CONTAINING COPPER AND A CO-BIOCIDE” (CORNING INCORPORATED, priority 2021, published 2024).

Test system: Pseudomonas aeruginosa (P. aeruginosa)
Assay: Minimum bactericidal concentration (MBC) test: serial dilutions in thickened Letheen Broth, plating and colony count
Assay type: cell-based
Design: key to MBC observation (contamination grade): −: no bacteria was observed on the plates; +: a trace of contamination was observed (<10 colonies); ++: light contamination was observed (>100 colonies); +++: heavy contamination was observed (continuous smear of growth)
Details: 24 hours at 37° C.
Method: The minimum bactericidal concentration (MBC) values reported herein were determined using Pseudomonas aeruginosa (P. aeruginosa), which is a gram-negative pathogen that can cause severe acute and chronic infections. The MBC is the lowest biocide or biocide combination concentration that kills 100% of the tested bacteria. The cultures of P. aeruginosa were grown for 24 hours in Letheen Broth before treatment with each biocide (e.g., copper-containing glass particles or organic co-biocide) or biocide combination (e.g., copper-containing glass particles and an organic co-biocide). A stock copper-containing glass particle dispersion containing 10 wt % copper-containing glass particles and 1.5% hydoxyethylcellulose (HEC) thickener (Natrosol™ Plus 330 PA) was prepared for serial dilution in thickened Letheen Broth (Letheen Broth containing 1.5 wt % HEC thickener) to achieve the desired test concentrations. A stock organic co-biocide or biocide combination dispersion was prepared by combining 5 grams of a 1 wt % dispersion of each organic co-biocide or biocide combination in 1 wt % HEC thickener for serial dilution to achieve the desired test concentrations. 1000 μL of the dispersion of interest was added to a microcentrifuge tube (referred to as “tube 1”). Serial dilution continued with the dilution of 500 μL of the dispersion from tube 1 with 500 μL of thickened Letheen Broth (“tube 2”). Serial dilutions were continued in this manner […] (tube 3 to tube 10). Tube 11 contained 500 μL of thickened Letheen Broth as a “broth blank.” 50 μL of P. aeruginosa was transferred directly from culture into each of tubes 1-11 and the tubes were incubated at 37° C. for 24 hours. At the end of the incubation period, each tube 1-11 was plated and the plates were incubated at 37° C. for 24 hours. At the end of the incubation period, the plates were removed and the colonies on each plate were counted and recorded.
The number of colonies remaining after treatment was determined for serial dilutions of 3 different organic biocides alone and in combination with copper-containing glass particles. Example 1A was treated with serial dilutions of Nuosept® 95 Preservative, which contains a mixture of 5-hydroxymethyl-1-aza-3,7-dioxabicyclo-(3.3.0) octane, 5-hydroxymethoxymethyl-1-aza-3,7-dioxabicyclo-(3.3.0) octane, and 5-hydroxypoly(methyleneoxy)methyl-1-aza-3,7-dioxabicyclo-(3.3.0) octane. Examples 1B and 1C were treated with serial dilutions of a 50:50 mixture and a 25:75 mixture, respectively, of Nuosept® 95 Preservative and copper-containing glass particles. Example 2A was treated with serial dilutions of benzisothiazolinone (BIT). Examples 2B and 2C were treated with serial dilutions of a 50:50 mixture and a 25:75 mixture, respectively, of BIT and copper-containing glass particles. Example 3A was treated with serial dilutions of Bronopol. Examples 3B and 3C were treated with serial dilutions of a 50:50 mixture and a 25:75 mixture, respectively, of Bronopol and copper-containing glass particles. Examples 4A and 4B were duplicate samples treated with serial dilutions of the copper-containing glass particles.
For each Example 1A-C, 2A-C, 3A-C, and 4A-B, 1000 μL of the dispersion of interest, the stock organic co-biocide dispersion, the stock copper-containing glass particle dispersion, or the indicated ratio of each dispersion, was added to a microcentrifuge tube (referred to as “tube 1”). 500 μL of the dispersion from tube 1 was diluted with 500 μL of thickened Letheen Broth (“tube 2”). Serial dilutions with thickened Letheen Broth were prepared up to tube 10. Tube 11 contained 500 μL of thickened Letheen Broth as a “broth blank.” 50 μL of P. aeruginosa was transferred directly from culture into each of tubes 1-11 and the tubes were incubated at 37° C. for 24 hours. At the end of the incubation period, each tube 1-11 was plated and the plates were incubated 37° C. for 24 hours. […]

[1] = Biocide Conc. 3.91 ppm (tube 10)
[2] = Biocide Conc. 7.81 ppm (tube 9)
[3] = Biocide Conc. 15.63 ppm (tube 8)
[4] = Biocide Conc. 31.25 ppm (tube 7)
[5] = Biocide Conc. 62.5 ppm (tube 6)
[6] = Biocide Conc. 1000 ppm (tube 2)
[7] = Biocide Conc. 2000 ppm (tube 1)

Structure (SMILES) | MBC observation (contamination grade) [1] | colony count [1] | MBC observation (contamination grade) [2] | colony count [2] | MBC observation (contamination grade) [3] | colony count [3] | MBC observation (contamination grade) [4] | colony count [4] | MBC observation (contamination grade) [5] | colony count [5] | MBC observation (contamination grade) (Biocide Conc. 125 ppm (tube 5)) | colony count (Biocide Conc. 125 ppm (tube 5)) | MBC observation (contamination grade) (Biocide Conc. 250 ppm (tube 4)) | colony count (Biocide Conc. 250 ppm (tube 4)) | MBC observation (contamination grade) (Biocide Conc. 500 ppm (tube 3)) | colony count (Biocide Conc. 500 ppm (tube 3)) | MBC observation (contamination grade) [6] | colony count [6] | MBC observation (contamination grade) [7] | colony count [7]
O=c1[nH]sc2ccccc12 [Ex. 2A, benzisothiazolinone] | +++ | (>1000) colonies | +++ | (>1000) colonies | +++ | (>1000) colonies | ++ (light contamination was observed (>100 colonies)) | 513 colonies | + (a trace of contamination was observed (<10 colonies)) | 35 colonies | − | 0 colonies | − | 0 colonies | − | 0 colonies | − | 0 colonies | − | 0 colonies
O=[N+]([O-])C(Br)(CO)CO [Ex. 3A, Bronopol] | +++ | (>1000) colonies | +++ | (>1000) colonies | − | 0 colonies | − | 0 colonies | − | 0 colonies | − | 0 colonies | − | 0 colonies | − | 0 colonies | − | 0 colonies | − | 0 colonies
